Target: human P2X7 receptor (Homo sapiens (Human), UniProt Q99572)
Assay: P2X7 FLIPR antagonist assay (BzATP-stimulated, 293 HEK cells stably expressing P2X7 receptor)
Assay type: cell-based
Conditions: Table 1, exemplified IC50 values; antagonist activity vs BzATP
Description: This example illustrates representative assays for use in evaluating the test compounds for antagonist activity. Compounds of the present invention were tested in vitro for their ability to act as antagonists to the P2X7 receptor.
Cells were plated to cell density of approximately 15,000 cells/well in 384-well assay plates (50 μl/well) with 1.5% low serum media (DMEM, 1.5% BCS, 1% L-glut (2 mM), 1% P/S).
Cells were plated to cell density of approximately 15,000 cells/well in 384-well assay plates (50 μl/well) with 1.5% low serum media (DMEM, 1.5% FBS, 1% L-glut (2 mM), 10 mM HEPES, 1% P/S). Cells were plated 24 hours prior to assay. Cells expressing human, rat or mouse P2X7 receptor were assayed in the following manner.
Fluo-4 NW dye mix (Molecular Probes, Inc., Eugene, Oreg., USA) was prepared in buffer (see manufacturer's instructions). Cell plates were removed from the 37° C. incubator, the media discarded and then 30 μL of dye was added to each well. Plates were placed in the 37° C., non-CO2 incubator for 30 minutes and then room temperature for 30 minutes.
B) Agonist only mixture was prepared with BzATP at a single concentration in buffer (concentration determined by dose response).
Compound mixtures (A) were added to assay plates containing cells and placed at room temperature for 30 minutes, then BzATP (B) was added. Fluorescence was read using the Tetra FLIPR® (Molecular Devices, Inc., Sunnyvale, Calif., USA) and IC50 values were calculated by standard methods to determine antagonist activity.

human P2X7 receptor, sequence (Q99572 whole entry): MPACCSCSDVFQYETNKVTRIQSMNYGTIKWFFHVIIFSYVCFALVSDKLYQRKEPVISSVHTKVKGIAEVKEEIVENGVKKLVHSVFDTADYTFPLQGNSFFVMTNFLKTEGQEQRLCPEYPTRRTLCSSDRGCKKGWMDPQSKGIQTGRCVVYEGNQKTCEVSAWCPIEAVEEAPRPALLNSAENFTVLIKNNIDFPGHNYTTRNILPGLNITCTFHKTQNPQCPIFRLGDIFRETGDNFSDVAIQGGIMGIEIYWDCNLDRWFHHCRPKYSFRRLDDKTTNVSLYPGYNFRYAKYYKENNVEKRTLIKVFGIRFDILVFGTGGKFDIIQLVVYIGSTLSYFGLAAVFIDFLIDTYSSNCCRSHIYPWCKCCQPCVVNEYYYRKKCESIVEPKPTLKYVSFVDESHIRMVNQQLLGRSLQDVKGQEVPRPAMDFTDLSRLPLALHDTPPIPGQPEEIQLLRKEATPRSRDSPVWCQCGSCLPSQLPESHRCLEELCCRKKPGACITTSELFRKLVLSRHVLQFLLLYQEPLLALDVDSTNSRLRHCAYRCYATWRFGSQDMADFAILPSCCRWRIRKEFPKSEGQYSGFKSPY

Row | Structure (SMILES) | IC50 [nM]
1 | Cc1ncc(C(CNC(=O)c2cccc(Cl)c2Cl)C2CCC(F)(F)CC2)cn1 (single isomer, unassigned; (+)) [(+)2,3-dichloro-N-[2-(4,4-difluorocyclohexyl)-2-(2-methylpyr] [(+)2,3-dichloro-N-[2-(4,4-difluorocyclohexyl)-2-(2-methylpyrimidin-5-yl)ethyl]benzamide] | 8.4
2 | O=C(NCC(CC1CC1)c1ccc(C(F)F)nc1)c1cccc(Cl)c1Cl (single isomer, unassigned; (-)) [(−)2,3-dichloro-N-[3-cyclopropyl-2-[6-(difluoromethyl)-3-pyr] [(−)2,3-dichloro-N-[3-cyclopropyl-2-[6-(difluoromethyl)-3-pyridyl]propyl]benzamide] | 1.9
3 | Cc1ncc(C2(C(C)NC(=O)c3c(F)cccc3Cl)CCOCC2)cn1 (stereo not shown) [2-chloro-6-fluoro-N-[1-[4-(2-methylpyrimidin-5-yl)tetrahydropyran-4-yl]ethyl]benzamide] | 55
4 | O=C(NCC1(c2cnc(C(F)(F)F)nc2)CCOCC1)c1ccccc1Cl [2-chloro-N-[[4-[2-(trifluoromethyl)pyrimidin-5-yl]tetrahydropyran-4-yl]methyl]benzamide] | 4400

Further lines, results first:

Row | IC50 [nM] | Structure (SMILES)
5 | 16 | Cc1ncc(C(CNC(=O)c2cccc(Cl)c2Cl)C2CCC(F)(F)CC2)cn1 (single isomer, unassigned; (-)) [(−)2,3-dichloro-N-[2-(4,4-difluorocyclohexyl)-2-(2-methylpyr] [(−)2,3-dichloro-N-[2-(4,4-difluorocyclohexyl)-2-(2-methylpyrimidin-5-yl)ethyl]benzamide]
6 | 50 | Cc1ncc(C(CNC(=O)c2cccc(Cl)c2Cl)c2ccncc2)cn1 (stereo not shown) [2,3-dichloro-N-[2-(2-methylpyrimidin-5-yl)-2-(4-pyridyl)ethyl]benzamide]
7 | 640 | Cc1ncc(C(CNC(=O)c2c(F)cccc2Cl)c2ccncc2)cn1 (stereo not shown) [2-chloro-6-fluoro-N-[2-(2-methylpyrimidin-5-yl)-2-(4-pyridyl)ethyl]benzamide]

From patent publication US9649308B2, “Benzamide-containing compounds and their use in the treatment of pain” (H. Lundbeck A/S, priority 2012, dated 2017)
